Consider seven compounds from article PMC7075649 (Journal of Medicinal Chemistry, 2019).

The test system of one data set is +RNA viruses. In kind it is cell-based.
Another data set concerns AK^+ and AK^– cells. The settings on record: cited from earlier work.
The test system of the next data set is ZIKV. Put plainly: microbe, parasite or virus in culture. Type of data set: cell-based. Particulars: Zika virus, read-out: ZIKV EC50.
Data set [1] has as its target recombinant human SAH hydrolase (Homo sapiens, UniProt P23526). Type of data set: biochemical.
The next data set deals with CHIKV. In kind it is cell-based, chikungunya virus.
The subject of another data set is Vero cells. The settings on record: African green monkey.

Entries after “also recorded” stand apart in the source; their conditions may differ.

Chain of recombinant human SAH hydrolase (P23526 whole entry): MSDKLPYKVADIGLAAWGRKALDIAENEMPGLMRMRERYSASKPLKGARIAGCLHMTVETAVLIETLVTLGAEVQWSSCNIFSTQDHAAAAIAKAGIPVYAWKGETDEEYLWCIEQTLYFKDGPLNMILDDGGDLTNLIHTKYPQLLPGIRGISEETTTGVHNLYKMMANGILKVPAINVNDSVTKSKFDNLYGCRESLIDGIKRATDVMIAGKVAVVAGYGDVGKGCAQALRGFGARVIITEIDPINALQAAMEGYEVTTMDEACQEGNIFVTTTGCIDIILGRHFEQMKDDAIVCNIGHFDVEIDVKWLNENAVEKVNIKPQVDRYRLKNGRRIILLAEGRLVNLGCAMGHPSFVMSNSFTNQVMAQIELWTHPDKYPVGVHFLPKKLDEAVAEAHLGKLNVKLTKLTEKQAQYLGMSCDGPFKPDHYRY

On to `CNc1ncnc2c1ncn2[C@H]1[C@H](O)[C@H](O)[C@@H](CO)C1(F)F` [Compound 2e, (1S,2R,3R,5S)-4,4-Difluoro-3-(hydroxymethyl)-5-(6-(methylamino)-9H-purin-9-yl)cyclopentane-1,2-diol], for which the “antiviral activity against +RNA viruses (in words)” value (from here on “antiviral activity”) with +RNA viruses was “did not show significant antiviral activities”.
Turning to `CC(C)OC(=O)[C@H](C)N[P@](=O)(OC[C@@H]1[C@@H](O)[C@@H](O)[C@H](n2cnc3c(N)ncnc32)C1(F)F)Oc1ccccc1` [Compound 3a, Iso-propyl ((S)-(((1R,3S,4S,5R)-3-(6-Amino-9H-purin-9-yl)-2,2-difluoro-4,5-dihydroxycyclopentyl)methoxy)(phenoxy)phosphoryl)-L-alaninate], the “antiviral activity” value in the data set on +RNA viruses was “potent broad-spectrum antiviral activity; also recorded: exhibited significant broad-spectrum antiviral activities”.
Turning to `Nc1ncnc2c1ncn2[C@@H]1C[C@H](CO)[C@@H](O)[C@H]1O` [Compound 1, (−)-Aristeromycin], the “toxicity in AK^+ and AK^– cells” value in the data set on AK^+ and AK^– cells is recorded as “toxic at low concentrations”.
The EC50 is the concentration at which the effect is half-maximal. Consider `O=c1ccn([C@H]2[C@H](O)[C@H](O)[C@@H](CO)[C@H]2F)c(=O)[nH]1` [Compound 2f, 1-((1S,2R,3R,4R,5S)-2-Fluoro-4,5-dihydroxy-3-(hydroxymethyl)cyclopentyl)pyrimidine-2,4(1H,3H)-dione], for which, in the data set with ZIKV, the EC50 was greater than 100 µM.
In the case of `CNc1ncnc2c1ncn2[C@H]1[C@H](O)[C@H](O)[C@@H](CO)[C@H]1F` [Compound 2d, (1S,2R,3R,4R,5S)-4-Fluoro-3-(hydroxymethyl)-5-(6-(methylamino)-9H-purin-9-yl)cyclopentane-1,2-diol], the “SAH hydrolase inhibitory activity, fold decrease versus 2a” value in data set [1] is reported as 11.9 fold. Besides, the “antiviral activity” value with +RNA viruses is “did not show significant antiviral activities”.
Take `O=c1ccn([C@H]2[C@H](O)[C@H](O)[C@@H](CO)[C@@H]2F)c(=O)[nH]1` [Compound 2g, 1-((1S,2S,3R,4R,5S)-2-Fluoro-4,5-dihydroxy-3-(hydroxymethyl)cyclopentyl)pyrimidine-2,4(1H,3H)-dione]: the EC50 with ZIKV is greater than 100 µM.
Take `Nc1ncnc2c1ncn2[C@H]1[C@H](O)[C@H](O)[C@@H](CO)C1(F)F` [Compound 2c, (1R,2S,3S,5R)-3-(6-Amino-9H-purin-9-yl)-4,4-difluoro-5-(hydroxymethyl)cyclopentane-1,2-diol]: in the data set on CHIKV, the “reduction of infectious CHIKV titers” value was “more than 2 log”. In addition, the “reduction in cytotoxicity versus 2a” value in the data set with Vero cells is on record as greater than 5 fold.
